The assay has as its system sera from ewes known not to have been infected with C. abortus; SPF lamb antisera. The assay can be described thus: ELISA, specificity of peptides with sera from uninfected ewes and SPF lamb antisera (first Table 4). Format: binding, sheep. Details: reactivity with serum (quantity not given): unit not given here. How it is done:
Application of the peptide mixture is performed as follows:
Two dilutions of standard serum are used.
Specificities of Peptides 2-9,2-10, 1B, 1A/1A and 4B/4B as tested with sera from ewes known not to have been infected with C. abortus, and which had shown positive reactivity in previous tests with various forms of VS 1 and VS2.
In general terms: ELISA stands for enzyme-linked immunosorbent assay.

[1] abbreviates: SPF lamb antiserum 2397/2 C.ab, vaccinated with S26/3 (C. abortus).
Setting [2] is: SPF lamb antiserum 2401/2 C.ab, vaccinated with S26/3 (C. abortus).
Setting [3] is: SPF lamb antiserum 2405/2 C.ab, vaccinated with 28/28 (C. abortus).
Setting [4] is: SPF lamb antiserum 2406/2 C.ab, vaccinated with 28/68 (C. abortus).
The mark [5] stands for this setting: SPF lamb antiserum 2407/2 W73, vaccinated with W73 (C. pecorum).
Where [6] appears, read: SPF lamb antiserum F6/2 Cap.ab, vaccinated with Cap. abortion 15 (C. abortus).
[7] abbreviates: SPF lamb serum 2397/1, pre-vaccination.

Experimental findings from US20030186887A1, “Compounds for detection of infection by chlamydophila abortus” (priority 2000, published 2003) are described below.

For the substance “GVKGSSIAADQGVKGSSIAADQ (GVKGSSIAADQGVKGSSIAADQ) [Compound 2-10]”, the “reactivity with serum (quantity not given)” value under setting [1] was 3.1; the “reactivity with serum (quantity not given)” value under setting [2] turned out to be 1.5; the “reactivity with serum (quantity not given)” value under setting [3] is 2.6; the “reactivity with serum (quantity not given)” value under setting [4] came to 1.6; the “reactivity with serum (quantity not given)” value (serum of animal no. 1354R) is reported as 0.9; the “reactivity with serum (quantity not given)” value (serum of animal no. 1715T) came out at 0.3. Moreover, the “reactivity with serum (quantity not given)” value was found to be 0.5 (serum of animal no. 2948); 1.3 (serum of animal no. 3174); 1.0 (serum of animal no. A2332); 1.1 (serum of animal no. Z2600); 0.55 (serum of animal no. Z2708).

For “TGTAAANYKTTGTAAANYKT (TGTAAANYKTTGTAAANYKT) [Compound 1A/1A]”, the “specificity compared with 1B (in words)” value is reported as “less specific”. For the same substance, the “reactivity with serum (quantity not given)” value under setting [1] is listed as “OVER”. For the same substance, the “reactivity with serum (quantity not given)” value under setting [2] is on record as “OVER”. In addition, the “reactivity with serum (quantity not given)” value under setting [3] is “OVER”. Under setting [4], the “reactivity with serum (quantity not given)” value is given as “OVER”. Besides, the “reactivity with serum (quantity not given)” value under setting [5] turned out to be 1.8. Besides, for the setting “SPF lamb antiserum F4/2 84-796, vaccinated with 84-796 (C. pecorum)”, the “reactivity with serum (quantity not given)” value amounted to 0.4. Further, the “reactivity with serum (quantity not given)” value under setting [6] amounted to 0.9. The “reactivity with serum (quantity not given)” value (SPF lamb antiserum F7/2 P787, vaccinated with P787 (C. pecorum)) was 0.5. For the same substance, the “reactivity with serum (quantity not given)” value under setting [7] was “OVER”. In addition, where the note is “serum of animal no. 1354R”, the “reactivity with serum (quantity not given)” value is 2.3. The “reactivity with serum (quantity not given)” value (serum of animal no. 2948) stood at 0.6. The “reactivity with serum (quantity not given)” value (serum of animal no. A2213) is reported as “OVER”. In addition, under “serum of animal no. A2261”, the “reactivity with serum (quantity not given)” value is 0.7. The “reactivity with serum (quantity not given)” value (serum of animal no. B2123) was 2.0. For the same substance, the “reactivity with serum (quantity not given)” value (serum of animal no. Y10-8-14) came out at 1.2. Besides, the “reactivity with serum (quantity not given)” value (serum of animal no. Y10-8-37) amounted to 0.8. Besides, the “reactivity with serum (quantity not given)” value (serum of animal no. Z2611) amounted to 1.0. Further, the “reactivity with serum (quantity not given)” value (serum of animal no. Z2646) turned out to be 0.4. Further, the “reactivity with serum (quantity not given)” value (serum of animal no. Z2656) is listed as 0.66.

Take “ATALDTSNKFATALDTSNKFA (ATALDTSNKFATALDTSNKFA) [Compound 4B/4B]”: the “reactivity with serum (quantity not given)” value was “OVER” under setting [4]; 0.8 under setting [5]; 1.2 (SPF lamb antiserum F1/2 S45, vaccinated with S45 (C. suis)); 0.7 under setting [6]; 0.4 (SPF lamb antiserum F8/2 P787, vaccinated with P787 (C. pecorum)); 0.8 under setting [7]. The “reactivity with serum (quantity not given)” value by setting is: (SPF lamb serum F1/1, pre-vaccination) 0.5; (serum of animal no. 3178) 0.6; (serum of animal no. 3201) 1.7; (serum of animal no. A2213) “OVER”; (serum of animal no. A2261) 0.4; (serum of animal no. B2123) 0.4. The “reactivity with serum (quantity not given)” value was 0.5 (serum of animal no. X2895); 0.4 (serum of animal no. X2899); 0.7 (serum of animal no. Z148); 0.55 (serum of animal no. Z2618); 1.0 (serum of animal no. Z2646); 0.4 (serum of animal no. Z2739).

Turning to “KTITGMTGTAAANYKTITGM (KTITGMTGTAAANYKTITGM) [Compound 1B]”, the “reactivity with serum (quantity not given)” value reads like this: under setting [1], “OVER”; under setting [2], “OVER”; under setting [3], “OVER”; under setting [4], “OVER”; under setting [5], 1.3; under setting [6], 0.9. Further, the “reactivity with serum (quantity not given)” value is “OVER” under setting [7]; 2.3 (serum of animal no. 1354R); 0.7 (serum of animal no. 3178); “OVER” (serum of animal no. A2213); 1.55 (serum of animal no. B2123); 0.6 (serum of animal no. Z2611). Moreover, for the setting “serum of animal no. Z2680”, the “reactivity with serum (quantity not given)” value is recorded as 0.5.
